From patent publication US4275067A, “Decarboxyclavulanic acid thio ethers, their preparation and use” (Beecham Group Limited, priority 1977, dated 1981) come the findings set out here.

The structures appear in SMILES notation. Values after ≈ are worked out from the molar mass of the structure shown. Where two headings read alike, the source gives them in different places.

The target of assay [1] is T1, β-lactamase (E. coli JT 4) (Escherichia coli, UniProt P62593).
T1 construct: Source of β-lactamase; endogenous in cells; host or cells: E. coli JT 4
T1 sequence (P62593 24-286 limits assumed): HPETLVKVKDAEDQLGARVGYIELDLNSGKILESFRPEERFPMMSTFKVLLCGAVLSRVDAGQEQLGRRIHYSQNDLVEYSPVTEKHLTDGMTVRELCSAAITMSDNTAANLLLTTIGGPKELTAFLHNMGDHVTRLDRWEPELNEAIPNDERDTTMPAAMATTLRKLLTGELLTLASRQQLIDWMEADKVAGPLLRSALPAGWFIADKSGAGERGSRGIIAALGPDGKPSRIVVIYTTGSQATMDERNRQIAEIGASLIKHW
Nature of the assay: β-lactamase inhibition. The class given is biochemical. The conditions noted are these: β-lactamase from E. coli JT 4; read-out: I50 (converted). The method, then:
(§1) I50 values were determined using the process described in Belgian Pat. No. 827,926.

Assay [2] concerns the target T2, β-lactamase (Enterobacter cloacae P 99) (Enterobacter cloacae, UniProt P05364).
T2 construct: Source of β-lactamase; endogenous in cells; host or cells: Enterobacter cloacae P 99
Kind of assay: β-lactamase inhibition. The assay is classed as biochemical. Particulars: β-lactamase from Enterobacter cloacae P 99; read-out: I50 (converted). As to the method:
as §1

For assay [3], the target named is β-lactamase (Proteus mirabilis C 889). Kind of assay: β-lactamase inhibition. The assay is classed as biochemical. Particulars: β-lactamase from Proteus mirabilis C 889. The method, then:
as §1

Assay [4] addresses T3, β-lactamase (Ps. aeruginosa Dalgleish) (Pseudomonas aeruginosa, UniProt P16897).
T3 construct: Source of β-lactamase; endogenous in cells; host or cells: Ps. aeruginosa Dalgleish
Kind of assay: β-lactamase inhibition. The assay is classed as biochemical. Particulars: β-lactamase from Ps. aeruginosa Dalgleish; read-out: I50 (converted). As to the method:
as §1

For assay [5], the target named is β-lactamase (Pseudomonas aeruginosa A). Nature of the assay: β-lactamase inhibition. Particulars: β-lactamase from Pseudomonas aeruginosa A. The class given is biochemical. The method, then: as §1
Assay [6] concerns the target T4, β-lactamase (Staph. aureus Russell) (Staphylococcus aureus, UniProt P00807).
T4 construct: Source of β-lactamase; endogenous in cells; host or cells: Staph. aureus Russell
Kind of assay: β-lactamase inhibition. The class given is biochemical. Particulars: β-lactamase from Staph. aureus Russell; read-out: I50 (converted). As to the method:
as §1

For assay [7], the system named is Staph. aureus Russell and Klebsiella aerogenes E70. Kind of assay: Antibacterial synergy when combined with ampicillin (overall statement). The class given is cell-based.
The test system of assay [8] is Candida albicans. Kind of assay: Anti-fungal activity, microtitre method. Particulars: glucosepeptone broth. The class given is cell-based. From the text:
(§2) The anti-fungal activity of the compound of Example 7 was investigated using a microtitre method, with glucosepeptone broth at 1/50 and 1/500 final dilutions of inoculum. The organisms used were Candida albicans and Saccharomyces cerevisiae. The minimum inhibitory concentrations (MIC) are shown below.

Assay [9] has as its system Saccharomyces cerevisiae. Nature of the assay: Anti-fungal activity, microtitre method. The assay is classed as cell-based. The conditions noted are these: glucosepeptone broth.
Text: as §2

The test system of assay [10] is Staph. aureus Russell. Kind of assay: Antibacterial synergy with ampicillin. Particulars: ampicillin without inhibitor. The class given is cell-based.

T4 sequence (P00807 25-281): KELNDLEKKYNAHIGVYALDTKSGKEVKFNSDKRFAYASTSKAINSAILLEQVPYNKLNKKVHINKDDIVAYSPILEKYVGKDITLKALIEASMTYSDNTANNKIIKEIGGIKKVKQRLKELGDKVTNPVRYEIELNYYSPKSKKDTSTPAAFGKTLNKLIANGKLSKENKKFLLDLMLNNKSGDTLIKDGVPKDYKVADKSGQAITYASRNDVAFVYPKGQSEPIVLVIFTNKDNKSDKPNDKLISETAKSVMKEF
T3 sequence (P16897 18-288): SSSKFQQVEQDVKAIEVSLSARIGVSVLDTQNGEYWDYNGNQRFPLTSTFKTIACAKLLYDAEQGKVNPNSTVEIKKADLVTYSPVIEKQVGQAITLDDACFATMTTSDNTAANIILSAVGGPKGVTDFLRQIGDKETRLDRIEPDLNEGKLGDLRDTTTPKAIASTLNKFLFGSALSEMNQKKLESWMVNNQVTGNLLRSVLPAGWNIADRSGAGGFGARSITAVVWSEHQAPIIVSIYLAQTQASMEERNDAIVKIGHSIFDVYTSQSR
T2 sequence (P05364 21-381): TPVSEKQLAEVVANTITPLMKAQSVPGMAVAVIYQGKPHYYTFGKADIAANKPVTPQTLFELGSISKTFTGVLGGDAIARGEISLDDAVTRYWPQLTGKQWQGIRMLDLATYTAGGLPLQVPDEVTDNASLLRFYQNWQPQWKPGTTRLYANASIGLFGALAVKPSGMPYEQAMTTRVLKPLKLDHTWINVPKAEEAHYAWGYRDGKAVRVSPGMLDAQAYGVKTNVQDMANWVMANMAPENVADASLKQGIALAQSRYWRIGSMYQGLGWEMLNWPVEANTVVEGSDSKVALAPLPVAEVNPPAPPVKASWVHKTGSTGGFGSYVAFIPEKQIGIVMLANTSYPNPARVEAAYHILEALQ

On to `O=C1C[C@H]2O/C(=C\CSc3ccccc3)CN12` [Example 1, (Z, 5R)-3-(2-Phenylthioethylidene)-4-oxa-1-azabicyclo [3.2.0]heptan-7-one], for which the IC50 in [1] is 1460 nM; in assay [2] it was 5340 nM; in [4], 2430 nM; in assay [6], 1010 nM. The I50 came out at 4.4 µg/mL in assay [3] and 2.2 µg/mL in assay [5]. Moreover, in assay [7], the antibacterial synergy result was “active as antibacterial synergists”.

With `COC(=O)CCSC/C=C1/CN2C(=O)C[C@H]2O1` [Example 7, (Z)-(5R)-3-[2-(2-Methoxycarbonylethylthio)ethylidene]-4-oxa-1-azabicyclo[3.2.0]hetpan-7-one], the MIC in assay [8] (Candida albicans, final dilution of inoculum 1/50, read-out: minimum inhibitory concentration (MIC)) was 12.5 µg/mL (≈ 48.6 µM); in [9] (final dilution of inoculum 1/50, read-out: minimum inhibitory concentration (MIC)), greater than 100 µg/mL; in assay [9] (final dilution of inoculum 1/500, read-out: minimum inhibitory concentration (MIC)), 100 µg/mL (≈ 389 µM). In addition, the “minimum inhibitory concentration (MIC)” value in [8] (final dilution of inoculum 1/500) stood at 12.5 µg/mL (≈ 48.6 µM).

As for `CC1(C)S[C@@H]2[C@H](NC(=O)[C@H](N)c3ccccc3)C(=O)N2[C@H]1C(=O)O` [ampicillin], the MIC for ampicillin in [10] worked out at 250 µg/mL.
